Experimental data published in patent US20240309028A1, “PHOSPHOLIPID COMPOUNDS AND METHODS OF MAKING AND USING THE SAME” (Gilead Sciences, Inc., priority 2023, published 2024).

System: Respiratory syncytial virus recombinant with luciferase (RSV-Luc5)
Test: NHBE RSV-Luc5 384-well assay (EC50 RSVFLUC NHBE-384)
Type: cell-based
Details: human respiratory syncytial virus, 72 h, read-out: EC50 RSV FLUC NHBE 384 V2 (per Ex. U)
Source text: Example U. NHBE RSV-Luc5 384-Well Assay (EC50 RSVFLUC NHBE-384)
Normal Human Bronchial Epithelial (NHBE) cells were purchased from Lonza (Walkersville, MD Cat #CC2540) and maintained in BEGM Bronchial Epithelial Cell Growth Medium BulletKit (Lonza CC-3170).
Cells were thawed, expanded, and were used for experiments at passage 2. Respiratory syncytial virus recombinant with luciferase (RSV-Luc5) (≥1×107 Infectious Units/ml (IU/ml) determined by TCID50) was purchased from Microbiologics (Saint Cloud, MN). Viral replication was determined in NHBE cells in the following manner.
Compounds are prepared in 100% DMSO in 384-well polypropylene plates (Greiner, Monroe, NC, Cat #784201) with 8 compounds per plate in grouped replicates of 4 at 10 serially diluted concentrations (1:3). The serially diluted compounds were transferred to low dead volume Echo plates (Labcyte, Sunnyvale, CA, Cat #LP-0200).
The test compounds were spotted to 384-well assay plates (Greiner, Monroe, NC, Cat #781091) at 200 nL per well. NHBE cells were harvested and suspended in BEGM Bronchial Epithelial Cell Growth Medium BulletKit and seeded to the pre-spotted assay plates at 5,000 cells per well in 30 μL. RSV-Luc5 virus was diluted in BEGM Bronchial Epithelial Cell Growth Medium BulletKit at 500,000 Infectious Units (IU) per mL and 10 μL per well was added to the assay plates containing cells and compounds, for an MOI of 1. The assay plates were incubated for 3 days at 37° C. and 5% CO2. At the end of incubation, One-Glo reagent (Promega, Madison, WI, Cat #E6120) was prepared. The assay plates and One-Glo reagent were equilibrated to room temperature for at least 15 minutes. 40 μL per well of One-Glo reagent was added and the plates were incubated at room temperature for 15 minutes before reading the luminescence signal on an En Vision multimode plate reader (Perkin Elmer, Waltham, MA). Remdesivir was used as positive control and DMSO was used as negative control. Values were normalized to the positive and negative controls (as 0% and 100% replication, respectively) and data was fitted using non-linear regression analysis by Gilead's dose response tool. The EC50 value for each compound was defined as the concentration reducing the viral replication by 50%.

| Compound | EC50 [nM] |
| --- | --- |
| N#Cc1cc(F)cc(CO[C@H](CCCCCCCCCCCCCCCCCCC(F)(F)F)COP(=O)(O)OC[C@@]2(C#N)O[C@@H](c3ccc4c(N)ncnn34)[C@H](O)[C@@H]2O)c1 [Compound 2, ((2R,3S,4R,5S)-5-(4-aminopyrrolo[2,1-f][1,2,4]triazin-7-yl)-2-cyano-3,4-dihydroxytetrahydrofuran-2-yl)methyl ((R)-2-((3-cyano-5-fluorobenzyl)oxy)-21,21,21-trifluorohenicosyl) hydrogen phosphate] | 30 |
| N#Cc1cc(F)cc(CO[C@H](COCCCCCCCCCCCCCCCCCC(F)(F)F)COP(=O)(O)OC[C@@]2(C#N)O[C@@H](c3ccc4c(N)ncnn34)[C@H](O)[C@@H]2O)c1 [Compound 1, ((2R,3S,4R,5S)-5-(4-aminopyrrolo[2,1-f][1,2,4]triazin-7-yl)-2-cyano-3,4-dihydroxytetrahydrofuran-2-yl)methyl ((R)-2-((3-cyano-5-fluorobenzyl)oxy)-3-((18,18,18-trifluorooctadecyl)oxy)propyl) hydrogen phosphate] | 26 |
